Tested on: squid giant synapse
Experiment: Electron microscopy of presynaptic terminal (synaptic vesicles at active zones)
Type: cell-based, squid (Loligo paelli)
Details: treated squid following h-tau42 injection
From the text: Immediately following the electrophysiological study the ganglia were removed from the recording chamber, fixed by immersion in glutaraldehyde, postfixed in osmium tetroxide, stained in block with uranium acetate, dehydrated and embedded in resin (Embed 812, EM Sciences). Ultrathin sections were collected on Pioloform (Ted Pella, Redding, Calif.) and carbon-coated single sloth grids, and contrasted with uranyl acetate and lead citrate. Morphometry and quantitative analysis of the synaptic vesicles were performed with the in house program developed with LabVIEW (National Instruments, Ostin Tex.). […] Vesicle density at the synaptic active zones was determined as the number of vesicles per μm^2, on an average area of 0.8 μm^2 per active zone. CCV density was determined within the limits of the presynaptic terminal on an average terminal area of 3.3 μm^2.
At the end of the electrophysiological recordings the stellate ganglion was immediately removed from the recording chamber and fixed by immersion in glutaraldehyde. […] Morphometry and quantitative analysis of the synaptic vesicles were performed with the image J software (NIH, EUA). […] Synaptic vesicle density and the number of CCV at the synaptic active zones were determined as the number of vesicles per μm2. […]

SMILES: O=C(O)/C=C\C(=O)O.OC1CN(CCCOCCc2ccc3sccc3c2)C1 [T817MA]
- reduction in number of docked vesicles following h-tau42 injection: not seen

Reference: US20150202157A1, “COMPOSITIONS AND METHODS FOR ENHANCING NEURONAL PHOSPHORYLATION HOMEOSTASIS, AND MODULATING DYSFUNCTIONAL EXOCYTOSIS AND NEUROTRANSMITTER RELEASE” (Revalesio Corporation, priority 2014, published 2015)
